Reference: ChEMBL document CHEMBL6087462, “Cuminaldehyde Potentiates Antiproteolytic Peptide Efficacy via Parallel Pathways of Enhanced Inner Membrane-Damaging Activity and Inhibition of Bacterial Energy Metabolism” (J Med Chem, 2025)

What was measured:
Enterococcus faecalis [1] = assay: Synergistic antimicrobial activity against Enterococcus faecalis 29212 assessed as fractional inhibitory concentration index in presence of cuminaldehyde by checkerboard broth microdilution assay; assay type: functional
[2] = system: Staphylococcus epidermidis; assay: Synergistic antimicrobial activity against Staphylococcus epidermidis ATCC 12228 assessed as fractional inhibitory concentration by checkerboard broth microdilution assay; assay type: functional
Escherichia coli [3] = assay: Synergistic antimicrobial activity against Escherichia coli 078 assessed as fractional inhibitory concentration index in presence of citronellal by checkerboard broth microdilution assay; assay type: functional, 78
Escherichia coli [4] = assay: Antimicrobial activity against Escherichia coli K88 assessed as reduction in microbial growth by CLSI based broth microdilution method; assay type: functional
Salmonella typhimurium [5] = assay: Synergistic antimicrobial activity against Salmonella typhimurium 7731 assessed as fractional inhibitory concentration index in presence of thymol by checkerboard broth microdilution assay; assay type: functional, Salmonella enterica subsp. enterica serovar Typhimurium
Staphylococcus aureus [6] = assay: Antimicrobial activity against Staphylococcus aureus ATCC 29213 assessed as reduction in microbial growth by CLSI based broth microdilution method; assay type: functional
Salmonella typhimurium [7] = assay: Synergistic antimicrobial activity against Salmonella typhimurium 14028 assessed as fractional inhibitory concentration index in presence of cuminaldehyde by checkerboard broth microdilution assay; assay type: functional, Salmonella enterica subsp. enterica serovar Typhimurium
Enterococcus faecalis [8] = assay: Antimicrobial activity against Enterococcus faecalis ATCC 29212 assessed as reduction in microbial growth in presence of cuminaldehyde by CLSI based broth microdilution method; assay type: functional
Staphylococcus aureus [9] = assay: Synergistic antimicrobial activity against Staphylococcus aureus 43300 assessed as fractional inhibitory concentration index in presence of citral by checkerboard broth microdilution assay; assay type: functional
[10] = system: Staphylococcus epidermidis; assay: Antimicrobial activity against Staphylococcus epidermidis ATCC 12228 assessed as cuminaldehyde MIC by CLSI based broth microdilution method; assay type: functional
[11] = system: Staphylococcus epidermidis; assay: Synergistic antimicrobial activity against Staphylococcus epidermidis 12228 assessed as fractional inhibitory concentration index in presence of citronellal by checkerboard broth microdilution assay; assay type: functional
Staphylococcus aureus [12] = assay: Synergistic antimicrobial activity against Staphylococcus aureus 43300 assessed as fractional inhibitory concentration index in presence of citronellal by checkerboard broth microdilution assay; assay type: functional
Escherichia coli [13] = assay: Synergistic antimicrobial activity against Escherichia coli UB1005 assessed as fractional inhibitory concentration index in presence of cuminaldehyde by checkerboard broth microdilution assay; assay type: functional
Escherichia coli [14] = assay: Antimicrobial activity against Escherichia coli K99 assessed as reduction in microbial growth in presence of cuminaldehyde by CLSI based broth microdilution method; assay type: functional
Staphylococcus aureus [15] = assay: Synergistic antimicrobial activity against Staphylococcus aureus 25923 assessed as fractional inhibitory concentration index in presence of carvacrol by checkerboard broth microdilution assay; assay type: functional
Staphylococcus aureus [16] = assay: Synergistic antimicrobial activity against Staphylococcus aureus 43300 assessed as fractional inhibitory concentration index in presence of cuminaldehyde by checkerboard broth microdilution assay; assay type: functional
Escherichia coli [17] = assay: Antimicrobial activity against Escherichia coli 078 assessed as reduction in microbial growth by CLSI based broth microdilution method; assay type: functional
[18] = Synergistic antimicrobial activity against Salmonella enterica subsp. enterica serovar Pullorum 7913 assessed as fractional inhibitory concentration index in presence of perillaldehyde by checkerboard broth microdilution assay; assay type: functional
Staphylococcus aureus [19] = assay: Synergistic antimicrobial activity against Staphylococcus aureus 43300 assessed as fractional inhibitory concentration index in presence of perillaldehyde by checkerboard broth microdilution assay; assay type: functional
Escherichia coli [20] = assay: Synergistic antimicrobial activity against Escherichia coli K88 assessed as fractional inhibitory concentration by checkerboard broth microdilution assay; assay type: functional
Staphylococcus aureus [21] = assay: Synergistic antimicrobial activity against Staphylococcus aureus 29213 assessed as fractional inhibitory concentration index in presence of thymol by checkerboard broth microdilution assay; assay type: functional
Enterococcus faecalis [22] = assay: Synergistic antimicrobial activity against Enterococcus faecalis 29212 assessed as fractional inhibitory concentration index in presence of citronellal by checkerboard broth microdilution assay; assay type: functional
[23] = system: Staphylococcus epidermidis; assay: Synergistic antimicrobial activity against Staphylococcus epidermidis 12228 assessed as fractional inhibitory concentration index in presence of perillaldehyde by checkerboard broth microdilution assay; assay type: functional
Escherichia coli [24] = assay: Synergistic antimicrobial activity against Escherichia coli K99 assessed as fractional inhibitory concentration index in presence of perillaldehyde by checkerboard broth microdilution assay; assay type: functional
Enterococcus faecalis [25] = assay: Synergistic antimicrobial activity against Enterococcus faecalis 29212 assessed as fractional inhibitory concentration index in presence of carvacrol by checkerboard broth microdilution assay; assay type: functional
Escherichia coli [26] = assay: Synergistic antimicrobial activity against Escherichia coli K99 assessed as fractional inhibitory concentration index in presence of carvacrol by checkerboard broth microdilution assay; assay type: functional
Salmonella typhimurium [27] = assay: Antimicrobial activity against Salmonella typhimurium ATCC 7731 assessed as reduction in microbial growth in presence of cuminaldehyde by CLSI based broth microdilution method; assay type: functional, Salmonella enterica subsp. enterica serovar Typhimurium; conditions: Salmonella enterica
Enterococcus faecalis [28] = assay: Synergistic antimicrobial activity against Enterococcus faecalis ATCC 29212 assessed as fractional inhibitory concentration by checkerboard broth microdilution assay; assay type: functional
Staphylococcus aureus [29] = assay: Synergistic antimicrobial activity against Staphylococcus aureus ATCC 25923 assessed as fractional inhibitory concentration by checkerboard broth microdilution assay; assay type: functional
Staphylococcus aureus [30] = assay: Synergistic antimicrobial activity against Staphylococcus aureus 43300 assessed as fractional inhibitory concentration index in presence of carvacrol by checkerboard broth microdilution assay; assay type: functional
Escherichia coli [31] = assay: Antimicrobial activity against Escherichia coli K88 assessed as cuminaldehyde MIC by CLSI based broth microdilution method; assay type: functional
Pseudomonas aeruginosa [32] = assay: Antimicrobial activity against Pseudomonas aeruginosa ATCC 27853 assessed as cuminaldehyde MIC by CLSI based broth microdilution method; assay type: functional
Escherichia coli [33] = assay: Synergistic antimicrobial activity against Escherichia coli UB1005 assessed as fractional inhibitory concentration index in presence of thymol by checkerboard broth microdilution assay; assay type: functional
Escherichia coli [34] = assay: Antimicrobial activity against Escherichia coli 078 assessed as cuminaldehyde MIC by CLSI based broth microdilution method; assay type: functional; conditions: 78
Staphylococcus aureus [35] = assay: Antimicrobial activity against Staphylococcus aureus ATCC 25923 assessed as cuminaldehyde MIC by CLSI based broth microdilution method; assay type: functional
Escherichia coli [36] = assay: Antimicrobial activity against Escherichia coli ATCC 25922 assessed as reduction in microbial growth by CLSI based broth microdilution method; assay type: functional
Escherichia coli [37] = assay: Synergistic antimicrobial activity against Escherichia coli 078 assessed as fractional inhibitory concentration index in presence of cuminaldehyde by checkerboard broth microdilution assay; assay type: functional, 78
Enterococcus faecalis [38] = assay: Antimicrobial activity against Enterococcus faecalis ATCC 29212 assessed as reduction in microbial growth by CLSI based broth microdilution method; assay type: functional
Salmonella typhimurium [39] = assay: Synergistic antimicrobial activity against Salmonella typhimurium 14028 assessed as fractional inhibitory concentration index in presence of citronellal by checkerboard broth microdilution assay; assay type: functional, Salmonella enterica subsp. enterica serovar Typhimurium
Staphylococcus aureus [40] = assay: Synergistic antimicrobial activity against Staphylococcus aureus 25923 assessed as fractional inhibitory concentration index in presence of thymol by checkerboard broth microdilution assay; assay type: functional
Escherichia coli [41] = assay: Synergistic antimicrobial activity against Escherichia coli 25922 assessed as fractional inhibitory concentration index in presence of perillaldehyde by checkerboard broth microdilution assay; assay type: functional
Pseudomonas aeruginosa [42] = assay: Synergistic antimicrobial activity against Pseudomonas aeruginosa 27853 assessed as fractional inhibitory concentration index in presence of thymol by checkerboard broth microdilution assay; assay type: functional
Escherichia coli [43] = assay: Synergistic antimicrobial activity against Escherichia coli 25922 assessed as fractional inhibitory concentration index in presence of thymol by checkerboard broth microdilution assay; assay type: functional
Escherichia coli [44] = assay: Synergistic antimicrobial activity against Escherichia coli K99 assessed as fractional inhibitory concentration index in presence of citronellal by checkerboard broth microdilution assay; assay type: functional

In the case of `CC[C@H](C)[C@H](NC(=O)[C@@H](NC(=O)[C@@H](CCCNC(=N)N)NC(=O)[C@H](C)NC(=O)[C@H](C)NC(=O)[C@@H](N)Cc1cccc2ccccc12)[C@@H](C)CC)C(=O)N[C@@H](CC(C)C)C(=O)N[C@H](CCCNC(=N)N)C(=O)N[C@@H](Cc1c[nH]c2ccccc12)C(=O)N[C@H](CCCNC(=N)N)C(=O)N[C@@H](Cc1ccccc1)C(=O)N[C@@H](CCCNC(=N)N)C(=O)O`, the “fractional inhibitory concentration index (FICI)” value (Enterococcus faecalis [1]) is reported as 0.313, the FIC [2] is reported as 0.25 and the “fractional inhibitory concentration index (FICI)” value (Escherichia coli [3]) is reported as 0.156. For the same compound, the MIC (Escherichia coli [4]) was 4 µg/mL, the “fractional inhibitory concentration index (FICI)” value (Salmonella typhimurium [5]) was 0.313 and the MIC (Staphylococcus aureus [6]) was 16 µg/mL. The “fractional inhibitory concentration index (FICI)” value (Salmonella typhimurium [7]) was 0.25, the MIC (Enterococcus faecalis [8]) was 1 µg/mL and the “fractional inhibitory concentration index (FICI)” value (Staphylococcus aureus [9]) was 0.313. For the same compound, the MIC [10] was 256 µg/mL, the “fractional inhibitory concentration index (FICI)” value [11] was 0.25 and the “fractional inhibitory concentration index (FICI)” value (Staphylococcus aureus [12]) was 0.188. The “fractional inhibitory concentration index (FICI)” value (Escherichia coli [13]) was 0.188, the MIC (Escherichia coli [14]) was 0.25 µg/mL and the “fractional inhibitory concentration index (FICI)” value (Staphylococcus aureus [15]) was 0.375. The “fractional inhibitory concentration index (FICI)” value (Staphylococcus aureus [16]) was 0.375, the MIC (Escherichia coli [17]) was 8 µg/mL and the “fractional inhibitory concentration index (FICI)” value [18] was 0.375. For the same compound, the “fractional inhibitory concentration index (FICI)” value (Staphylococcus aureus [19]) was 0.75, the FIC (Escherichia coli [20]) was 0.063 and the “fractional inhibitory concentration index (FICI)” value (Staphylococcus aureus [21]) was 0.25. The “fractional inhibitory concentration index (FICI)” value (Enterococcus faecalis [22]) was 0.375, the “fractional inhibitory concentration index (FICI)” value [23] was 0.375 and the “fractional inhibitory concentration index (FICI)” value (Escherichia coli [24]) was 0.375. For the same compound, the “fractional inhibitory concentration index (FICI)” value (Enterococcus faecalis [25]) was 0.375, the “fractional inhibitory concentration index (FICI)” value (Escherichia coli [26]) was 0.5 and the MIC (Salmonella typhimurium [27]) was 0.5 µg/mL. For the same compound, the FIC (Enterococcus faecalis [28]) was 0.125, the FIC (Staphylococcus aureus [29]) was 0.063 and the “fractional inhibitory concentration index (FICI)” value (Staphylococcus aureus [30]) was 0.75. The MIC (Escherichia coli [31]) was 1020 µg/mL, the MIC (Pseudomonas aeruginosa [32]) was 512 µg/mL and the “fractional inhibitory concentration index (FICI)” value (Escherichia coli [33]) was 0.25. The MIC (Escherichia coli [34]) was 1020 µg/mL, the MIC (Staphylococcus aureus [35]) was 256 µg/mL and the MIC (Escherichia coli [36]) was 4 µg/mL. For the same compound, the “fractional inhibitory concentration index (FICI)” value (Escherichia coli [37]) was 0.125, the MIC (Enterococcus faecalis [38]) was 8 µg/mL and the “fractional inhibitory concentration index (FICI)” value (Salmonella typhimurium [39]) was 0.254. The “fractional inhibitory concentration index (FICI)” value (Staphylococcus aureus [40]) was 0.25, the “fractional inhibitory concentration index (FICI)” value (Escherichia coli [41]) was 0.156 and the “fractional inhibitory concentration index (FICI)” value (Pseudomonas aeruginosa [42]) was 0.25. For the same compound, the “fractional inhibitory concentration index (FICI)” value (Escherichia coli [43]) was 0.313 and the “fractional inhibitory concentration index (FICI)” value (Escherichia coli [44]) was 0.516.
